From US20190092720A1, “FUNCTIONALIZED BENZAMIDE DERIVATIVES AS ANTIVIRAL AGENTS AGAINST HBV INFECTION” (BARUCH S. BLUMBERG INSTITUTE, priority 2012, published 2019)

Columns and labels:
[1] = test system: HBV replication in AML12HBV10 cells; assay: Antiviral efficacy in AML12HBV10 cells (HBV DNA dot-blot hybridization); assay type: cell-based, Hepatitis B virus (HBV); settings: Hepatitis B virus, AML12HBV10, 48 h, read-out: AML12HBV10 EC50, concentration that reduces the amount of HBV DNA by 50%, serial dilution 50 μM to 0.39 μM
Experimental: The HBV replication inhibitors of the present invention are capable of treating and preventing diseases associated with HBV infection.
The antiviral efficacy of the compounds of the disclosure, as presented in Table 1, were determined in AML12HBV10 cells. AML12HBV10 is an immortalized murine hepatocyte (AML12)-derived stable cell line that supports robust HBV replication in a tetracycline inducible manner (Xu et al.). The cells were seeded into 96 well plates at a density of 2×10^4 cells per well and cultured in DMEM/F12 media with 10% fetal bovine serum in the absence of tetracycline to allow pgRNA transcription and HBV DNA replication. One day after seeding, cells were left untreated or treated with a serial dilution of testing compounds, ranging from 50 μM to 0.39 μM, for 48 hours. Cells were then lysed by adding into each well of 100 μl lysis buffer containing 10 mM Tris-HCl (pH 7.6), 1 mM EDTA, 100 mM NaCl and 1% NP-40 and incubated at 37° C. for 30 minutes. Half amount (50 μl) of cell lysate from each well was combined with equal volume of denaturing solution containing 0.5N NaOH and 1.5M NaCl. After 5 minute incubation, 100 µl of neutralization solution (1M Tris-HCl, pH 7.4, 1.5M NaCl) was added into each well. The denatured cell lysates (totally 200 μl) were applied onto Nylon membrane using 96-well dot-blot manifold (Biorad). HBV DNA in the cell lysates were determined by dot-blot hybridization with alpha-^32P-UTP-labelled riboprobe specific for HBV minus strand DNA. The antiviral efficacy of a compound of the disclosure was expressed as the concentration that reduces the amount of HBV DNA by 50% (EC50).

[2] = Cytotoxicity in AML12HBV10 cells (MTT assay); assay type: cell-based, murine; settings: mouse, concentration that reduces viability by 50%, serial dilution 50 μM to 0.39 μM
Experimental: Determination of cytotoxicity of compounds of the disclosure in AML12HBV10 cells: To determine the cytotoxicity of the compounds, AML12HBV10 cells were seeded into 96-well plates at a density of 2×10^4 cells per well and cultured in DMEM/F12 media with 10% fetal bovine serum in the absence of tetracycline to allow pgRNA transcription and HBV DNA replication. One day after seeding, cells were left untreated or treated with a serial dilution of testing compounds, ranging from 50 μM to 0.39 μM, for 48 hours. The cell viability was measured by a MTT assay, following procedure provided by the manufacturer (Promega). The cytotoxicity of a compound was expressed as the concentration of compound that reduces the viability of the cells by 50% (CC50).

[3] = test system: HBV replication in HepDES19 cells; assay: Antiviral activity in HepDES19 cells (core-associated HBV DNA, Southern blot); assay type: cell-based, Hepatitis B virus (HBV); settings: concentration that reduces core-associated HBV DNA by 50%, 6 days, serial dilution 10 μM to 0.018 μM
Excerpt: Determination of antiviral activity of compounds of the disclosure, as presented in Table 1, in human hepatoma-derived cell lines: To further confirm the antiviral activity of the compounds of the disclosure against HBV in human hepatocyte-derived cells, HepDES19 cells, a human hepatoma cell line supporting HBV replication in a tetracycline inducible manner (Guo et al., 2007), seeded into 12-well plates at a density of 5×10^5 cells per well and cultured in DMEM/F12 media with 10% fetal bovine serum and 1 μg/ml tetracycline. Two days after seeding, the cells were mock-treated or treated with a serial dilution of compounds of the disclosure, ranging from 10 μM to 0.018 μM, for 6 days in the absence of tetracycline. Upon the completion of treatment, cells were lysed by adding into each well of the 12-well plates 0.5 ml of lysis buffer containing 10 mM Tris-HCl (pH 8.0), 1 mM EDTA, 1% NP40 and 2% sucrose and incubating at 37° C. for 10 minutes. Cell debris and nuclei were removed by centrifugation and the supernatant was mixed with 130 μl of 35% polyethylene glycol (PEG) 8000 containing 1.5 M NaCl. After 1 hour incubation in ice, viral nucleocapsids were pelleted by centrifugation at 6,000×g for 5 min at 4° C., followed by 1 hour digestion at 37° C. in 400 μl of digestion buffer containing 0.5 mg/ml pronase (Calbiochem), 0.5% SDS, 150 mM NaCl, 25 mM Tris-HCl (pH 8.0) and 10 mM EDTA. The digestion mixture was extracted twice with phenol and DNA was precipitated with ethanol, dissolved in TE buffer (10 mM Tris-HCl, pH 8.0; 0.1 mM EDTA). One half of the DNA sample from each well was resolved by electrophoresis into a 1.5% agarose gel. The gel was then subjected to denaturation in a solution containing 0.5 M NaOH and 1.5 M NaCl, followed by neutralization in a buffer containing 1 M Tris-HCl (pH7.4) and 1.5 M NaCl. DNA was then blotted onto Hybond-XL membrane (GE Health care) in 20×SSC buffer. The amounts of cytoplasmic HBV core-associated HBV DNA were determined by Southern blot hybridization and the antiviral efficacy of a compound was expressed as its concentration that reduce the amount of HBV DNA by 50% (EC50) or 90% (EC90).

[4] = Hepatitis B virus, HepDES19, 144 h

## O=C(Nc1ccc(O)cc1)c1scc2c1CCCC2 [Entry 1]
[1]
  EC50: 36 µM
[2]
  CC50 at 48 h: > 50 µM

## O=C(Nc1ccccc1)c1scc2c1CCCC2 [Entry 2]
[1]
  EC50: 9 µM
[2]
  CC50 at 48 h: > 50 µM

## O=C(Nc1ccc(F)cc1)c1scc2c1CCCC2 [Entry 3]
[1]
  EC50: 25 µM
[2]
  CC50 at 48 h: > 50 µM

## COc1cccc(NC(=O)c2scc3c2CCCC3)c1 [Entry 4]
[1]
  EC50: 8 µM
[2]
  CC50 at 48 h: > 50 µM

## O=C(Nc1cccc(C(F)(F)F)c1)c1scc2c1OCCO2 [Entry 5]
[1]
  EC50: 8.5 µM
[2]
  CC50 at 48 h: > 50 µM

## O=C(Nc1ccccc1)c1scc2c1OCCO2 [Entry 7]
[1]
  EC50: 3 µM
[2]
  CC50 at 48 h: > 50 µM
[3]
  EC50: 3 µM

## O=C(Nc1cccc(Cl)c1)c1ccccc1 [Entry 8]
[1]
  EC50: 46.2 µM
[2]
  CC50 at 48 h: > 50 µM

## O=C(Nc1cccc(I)c1)c1scc2c1OCCO2 [Entry 9]
[1]
  EC50: 2.8 µM
[2]
  CC50 at 48 h: > 50 µM

## O=C(Nc1cccc(Cl)c1)c1csc2ccccc12 [Entry 11]
[1]
  EC50: 30 µM
[2]
  CC50 at 48 h: > 50 µM

## O=C(Nc1cccc(Cl)c1)c1cccc(F)c1F [Entry 12]
[1]
  EC50: 30 µM
[2]
  CC50 at 48 h: > 50 µM

## O=C(Nc1cccc(Cl)c1)c1ccccc1Cl [Entry 13]
[1]
  EC50: 12.3 µM
[2]
  CC50 at 48 h: > 50 µM

## O=C(Nc1cccc(Cl)c1)c1cccc(Cl)c1Cl [Entry 14]
[1]
  EC50: 8.3 µM
[2]
  CC50 at 48 h: > 50 µM
[3]; [4]
  EC50: 22.2 µM

## O=C(Nc1cccc(Cl)c1)c1c(F)cccc1F [Entry 15]
[1]
  EC50: 31.2 µM
[2]
  CC50 at 48 h: > 50 µM

## O=C(Nc1cccc(Cl)c1)c1c(Cl)cccc1Cl [Entry 16]
[1]
  EC50: 35.3 µM
[2]
  CC50 at 48 h: > 50 µM

## O=C(Nc1cccc(Cl)c1)c1ccccc1F [Entry 17]
[1]
  EC50: 16.5 µM
[2]
  CC50 at 48 h: > 50 µM

## O=C(Nc1cccc(Cl)c1)c1cccc2ccccc12 [Entry 18]
[1]
  EC50: 6.52 µM
[2]
  CC50 at 48 h: > 50 µM
[3]; [4]
  EC50: 4.2 µM

## O=C(Nc1cc(Cl)cc(Cl)c1)c1cccc2c1OCCO2 [Entry 20]
[1]
  EC50: 4.85 µM
[2]
  CC50 at 48 h: > 50 µM

## O=C(Nc1ccc(F)c(F)c1)c1ccc2ccccc2c1 [Entry 21]
[1]
  EC50: 23.9 µM
[2]
  CC50 at 48 h: > 50 µM

## O=C(Nc1ccc(F)c(F)c1)c1scc2c1OCCO2 [Entry 22]
[1]
  EC50: < 0.4 µM
[2]
  CC50 at 48 h: > 50 µM

## O=C(Nc1cccc(I)c1)c1ccc2ccccc2c1 [Entry 23]
[1]
  EC50: 19.4 µM
[2]
  CC50 at 48 h: > 50 µM

## O=C(Nc1cccc(Cl)c1)c1cccc2c1OCO2 [Entry 24]
[1]
  EC50: 1.14 µM
[2]
  CC50 at 48 h: > 10 µM

## O=C(Nc1cccc(F)c1)c1cccc2c1OCCO2 [Entry 25]
[1]
  EC50: 0.41 µM
[2]
  CC50 at 48 h: > 10 µM

## O=C(Nc1ccc(F)cc1)c1cccc2c1OCCO2 [Entry 26]
[1]
  EC50: 0.4 µM
[2]
  CC50 at 48 h: > 10 µM

## O=C(Nc1cccc(OC(F)(F)F)c1)c1cccc2c1OCCO2 [Entry 27]
[1]
  EC50: 11.2 µM
[2]
  CC50 at 48 h: > 10 µM

## O=C(Nc1ccccc1F)c1cccc2c1OCCO2 [Entry 28]
[1]
  EC50: 10.8 µM
[2]
  CC50 at 48 h: > 10 µM

## O=C(Nc1ccc(Br)cc1F)c1cccc2c1OCCO2 [Entry 29]
[1]
  EC50: 10.6 µM
[2]
  CC50 at 48 h: > 10 µM

## O=C(Nc1cc(F)ccc1F)c1cccc2c1OCCO2 [Entry 30]
[1]
  EC50: 14.9 µM
[2]
  CC50 at 48 h: > 10 µM

## O=C(Nc1ccc(F)c(F)c1)c1cccc2c1OCCO2 [Entry 31]
[1]
  EC50: 0.17 µM
[2]
  CC50 at 48 h: > 10 µM

## O=C(Nc1ccc(F)cc1F)c1cccc2c1OCCO2 [Entry 32]
[1]
  EC50: 8.53 µM
[2]
  CC50 at 48 h: > 10 µM

## O=C(Nc1ccc(F)c(F)c1)c1cccc(Cl)c1Cl [Entry 33]
[1]
  EC50: 1.86 µM
[2]
  CC50 at 48 h: > 10 µM

## O=C(Nc1ccc(F)cc1F)c1cccc(Cl)c1Cl [Entry 34]
[1]
  EC50: 13.2 µM
[2]
  CC50 at 48 h: > 10 µM

## O=C(Nc1ccc(Cl)c(Cl)c1)c1cccc2c1OCCO2 [Entry 35]
[1]
  EC50: 0.49 µM
[2]
  CC50 at 48 h: > 10 µM

## O=C(Nc1ccc(F)cc1Cl)c1cccc2c1OCCO2 [Entry 36]
[1]
  EC50: 7.41 µM
[2]
  CC50 at 48 h: > 10 µM

## O=C(Nc1ccc(Cl)cc1F)c1cccc2c1OCCO2 [Entry 37]
[1]
  EC50: 8.88 µM
[2]
  CC50 at 48 h: > 10 µM

## O=C(Nc1ccc(F)c(Cl)c1)c1cccc2c1OCCO2 [Entry 38]
[1]
  EC50: 0.05 µM
[2]
  CC50 at 48 h: > 10 µM

## O=C(Nc1ccc(F)c(F)c1F)c1cccc2c1OCCO2 [Entry 39]
[1]
  EC50: 3 µM
[2]
  CC50 at 48 h: > 10 µM

## O=C(Nc1c(F)cc(F)cc1F)c1cccc2c1OCCO2 [Entry 40]
[1]
  EC50: 10.5 µM
[2]
  CC50 at 48 h: > 10 µM

## O=C(Nc1ccc(Cl)c(F)c1)c1cccc2c1OCCO2 [Entry 41]
[1]
  EC50: 1.48 µM
[2]
  CC50 at 48 h: > 25 µM

## O=C(Nc1cccc(Cl)c1)c1cccc2c1OCCCO2 [Entry 42]
[1]
  EC50: 2.75 µM
[2]
  CC50 at 48 h: > 25 µM

## O=C(Nc1ccc(F)c(F)c1)c1cccc2c1OCCCO2 [Entry 43]
[1]
  EC50: 1.93 µM
[2]
  CC50 at 48 h: > 25 µM

## O=C(Nc1ccc(F)c(Cl)c1)c1cccc2c1OCCCO2 [Entry 44]
[1]
  EC50: 1.1 µM
[2]
  CC50 at 48 h: > 25 µM

## O=C(Nc1ccc(Cl)c(F)c1)c1cccc2c1CCCC2 [Entry 45]
[1]
  EC50: 1.66 µM
[2]
  CC50 at 48 h: > 25 µM

## O=C(Nc1ccc(F)c(F)c1)c1cccc2c1CCCC2 [Entry 46]
[1]
  EC50: 1.48 µM
[2]
  CC50 at 48 h: > 25 µM
